Biological target: R132H mutant IDH1 enzyme (Homo sapiens (Human), UniProt O75874, R132H)
Assay: R132H IDH1 Enzymatic Assay
Assay type: biochemical
Conditions: 1.5 nM final, 30 min preincubation, 60 min reaction, Kinase-GLO luminescence
Method: R132H IDH1 Enzymatic Assay
Each test compound (10 mM stock in DMSO) is diluted in DMSO to make a 10-point, 3-fold dilution series. 125 nL of each dilution or DMSO alone is dispensed to a 384-well Greiner Lumitrac 200 assay plate using an Echo® Liquid Handler. To each well of the plate is added 20 uL of enzyme in assay buffer or assay buffer alone. Assay buffer consists of 50 mM sodium phosphate, pH 7.0, 50 mM magnesium chloride, 50 mM sodium chloride, and 0.01% (w/v) bovine serum albumin. When present, the R132H mutant IDH1 enzyme is at a working concentration of 1.875 nM (final concentration in assay of 1.5 nM). The assay plate is allowed to incubate for 30 minutes at room temperature and 5 uL of 5× substrate mixture (2.5 uM nicotinamide adenine dinucleotide phosphate, 100 uM adenosine diphosphate, 7.5 mM glyceraldehyde-3-phosphate, 7.5 ug/mL of spinach glyceraldehyde-3-phosphate dehydrogenase, 25 nM phosphoglycerate kinase, and 5 mM alpha-ketoglutarate in assay buffer) is added to all wells. The reaction plate is incubated for 60 minutes followed by addition of 25 uL of Promega Kinase-GLO reagent to all wells and 10-minute incubation.
Luminescence is measured using a PerkinElmer Envision plate reader. The percent activity of each dilution is determined as the ratio of background corrected signal to the background corrected signal of wells receiving only DMSO. IC50 values are determined by fitting percent activity data to a four-parameter logistic dose response equation. The IC50 values of the exemplified compounds are included in Table 8.

R132H mutant IDH1 enzyme, sequence (O75874 whole entry R132H): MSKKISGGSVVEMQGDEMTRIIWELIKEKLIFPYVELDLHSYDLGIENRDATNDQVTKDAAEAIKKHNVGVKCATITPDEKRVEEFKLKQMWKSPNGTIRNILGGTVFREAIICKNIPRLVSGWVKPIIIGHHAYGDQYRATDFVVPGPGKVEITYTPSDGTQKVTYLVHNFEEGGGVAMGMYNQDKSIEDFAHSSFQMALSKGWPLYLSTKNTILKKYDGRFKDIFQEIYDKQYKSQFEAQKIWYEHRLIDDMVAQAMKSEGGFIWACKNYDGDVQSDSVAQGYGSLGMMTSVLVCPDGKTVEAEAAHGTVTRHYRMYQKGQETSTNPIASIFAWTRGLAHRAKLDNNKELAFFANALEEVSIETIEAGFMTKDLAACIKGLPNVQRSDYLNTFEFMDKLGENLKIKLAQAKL

SMILES | IC50
CO[C@H]1C[C@H]2CC[C@@H](C1)N2c1cc2c(cc1F)Nc1ncc(F)cc1CN2C(=O)[C@H]1CC[C@H](OC(C)C)CO1 [Example 47, (3,9-difluoro-8-((1R,3S,5S)-3-methoxy-8-azabicyclo[3.2.1]octan-8-yl)-5,11-dihydro-6H-benzo[b]pyrido[2,3-e][1,4]diazepin-6-yl)((2R,5S)-5-isopropoxytetrahydro-2H-pyran-2-yl)methanone] | 15.8 nM
O=C(C1CCN(CC(F)(F)F)CC1)N1Cc2cccnc2Nc2cc(F)c([C@@H]3COCCO3)cc21 [Example 56, (R)-(8-(1,4-Dioxan-2-yl)-9-fluoro-5,11-dihydro-6H-benzo[b]pyrido[2,3-e][1,4]diazepin-6-yl)(1-(2,2,2-trifluoroethyl)piperidin-4-yl)methanone] | 18.1 nM
Cc1cc2c(cc1N1C[C@@H]3CC[C@H]1CO3)N(C(=O)[C@H]1CC[C@H](OC(C)C)CC1)Cc1cccnc1N2 [Example 58, (trans-4-isopropoxycyclohexyl){9-methyl-8-[(1S,4S)-2-oxa-5-azabicyclo[2.2.2]oct-5-yl]-5,11-dihydro-6H-pyrido[2,3-b][1,5]benzodiazepin-6-yl}methanone] | 18.3 nM
Cc1c(N2C[C@@H]3CC[C@H]2CO3)ccc2c1N(C(=O)[C@H]1CC[C@H](OC(C)C)CC1)Cc1cccnc1N2 [Example 59, (trans-4-isopropoxycyclohexyl){7-methyl-8-[(1S,4S)-2-oxa-5-azabicyclo[2.2.2]oct-5-yl]-5,11-dihydro-6H-pyrido[2,3-b][1,5]benzodiazepin-6-yl}methanone] | 58.7 nM
Cc1cc2c(cc1N1C[C@H]3CC[C@@H]1CO3)N(C(=O)[C@H]1CC[C@H](OC(C)C)CC1)Cc1cccnc1N2 [Example 60, (trans-4-isopropoxycyclohexyl){9-methyl-8-[(1R,4R)-2-oxa-5-azabicyclo[2.2.2]oct-5-yl]-5,11-dihydro-6H-pyrido[2,3-b][1,5]benzodiazepin-6-yl}methanone] | 25.9 nM
Cc1c(N2C[C@H]3CC[C@@H]2CO3)ccc2c1N(C(=O)[C@H]1CC[C@H](OC(C)C)CC1)Cc1cccnc1N2 [Example 61, (trans-4-isopropoxycyclohexyl){7-methyl-8-[(1R,4R)-2-oxa-5-azabicyclo[2.2.2]oct-5-yl]-5,11-dihydro-6H-pyrido[2,3-b][1,5]benzodiazepin-6-yl}methanone] | 54.1 nM
CC(C)O[C@H]1CC[C@H](C(=O)N2Cc3cccnc3Nc3cc(F)c(N4CC5CCC4CO5)cc32)CC1 (stereo partly drawn) [Example 62, [9-fluoro-8-(2-oxa-5-azabicyclo[2.2.2]oct-5-yl)-5,11-dihydro-6H-pyrido[2,3-b][1,5]benzodiazepin-6-yl](trans-4-isopropoxycyclohexyl)methanone] | 35.2 nM
CC(C)O[C@H]1CC[C@H](C(=O)N2Cc3cccnc3Nc3ccc(N4CC5CCC4CO5)c(F)c32)CC1 (stereo partly drawn) [Example 63, [7-fluoro-8-(2-oxa-5-azabicyclo[2.2.2]oct-5-yl)-5,11-dihydro-6H-pyrido[2,3-b][1,5]benzodiazepin-6-yl](trans-4-isopropoxycyclohexyl)methanone] | 57 nM
CC(C)O[C@H]1CC[C@H](C(=O)N2Cc3cccnc3Nc3cc(F)c(N4C[C@@H]5C[C@H]4CO5)cc32)OC1 [Example 64, (8-((1S,4S)-2-Oxa-5-azabicyclo[2.2.1]heptan-5-yl)-9-fluoro-5H-benzo[b]pyrido[2,3-e][1,4]diazepin-6(11H)-yl)((2R,5S)-5-isopropoxytetrahydro-2H-pyran-2-yl)methanone] | 46.3 nM
CC(C)OC1CCC(C(=O)N2c3cc(Cl)ccc3Nc3ncccc3C2C)CC1 (stereo not drawn) [Example 65, (8-Chloro-5-methyl-5,11-dihydro-6H-benzo[b]pyrido[2,3-e][1,4]diazepin-6-yl)(trans-4-isopropoxycyclohexyl)methanone] | 106 nM
CC(C)O[C@H]1CC[C@H](C(=O)N2c3cc(N4CCOCC4)ccc3Nc3ncccc3C2C)CC1 (stereo partly drawn) [Example 66, (Trans-4-isopropoxycyclohexyl)(5-methyl-8-morpholino-5,11-dihydro-6H-benzo[b]pyrido[2,3-e][1,4]diazepin-6-yl)methanone] | 71.9 nM

Continued by falling IC50, values first:

IC50 | SMILES
17.9 nM | CC(C)O[C@H]1CC[C@H](C(=O)N2Cc3cc(F)cnc3Nc3cc(F)c(N4C[C@@H]5C[C@H]4CO5)cc32)OC1 [Example 46, (8-((1S,4S)-2-oxa-5-azabicyclo[2.2.1]heptan-5-yl)-3,9-difluoro-5,11-dihydro-6H-benzo[b]pyrido[2,3-e][1,4]diazepin-6-yl)((2R,5S)-5-isopropoxytetrahydro-2H-pyran-2-yl)methanone]
12.2 nM | O=C(C1CCN(CC(F)(F)F)CC1)N1Cc2cccnc2Nc2cc(F)c([C@H]3COCCO3)cc21 [Example 57, (S)-(8-(1,4-dioxan-2-yl)-9-fluoro-5,11-dihydro-6H-benzo[b]pyrido[2,3-e][1,4]diazepin-6-yl)(1-(2,2,2-trifluoroethyl)piperidin-4-yl)methanone]
10 nM | CC(C)O[C@H]1CC[C@H](C(=O)N2Cc3cc(F)cnc3Nc3ccc(N4C[C@H]5CC[C@@H]4CO5)cc32)OC1 [Example 48, (8-((1R,4R)-2-oxa-5-azabicyclo[2.2.2]octan-5-yl)-3-fluoro-5,11-dihydro-6H-benzo[b]pyrido[2,3-e][1,4]diazepin-6-yl)((2R,5S)-5-isopropoxytetrahydro-2H-pyran-2-yl)methanone]
7.2 nM | Cn1nccc1-c1cc2c(cc1F)Nc1ncccc1CN2C(=O)C1CCN(CC(F)(F)F)CC1 [Example 53, (9-fluoro-8-(1-methyl-1H-pyrazol-5-yl)-5,11-dihydro-6H-benzo[b]pyrido[2,3-e][1,4]diazepin-6-yl)(1-(2,2,2-trifluoroethyl)piperidin-4-yl)methanone]
6.5 nM | O=C(C1CCN(CC(F)(F)F)CC1)N1Cc2cc(F)cnc2Nc2ccc([C@@H]3COCCO3)cc21 [Example 55, (R)-(8-(1,4-dioxan-2-yl)-3-fluoro-5,11-dihydro-6H-benzo[b]pyrido[2,3-e][1,4]diazepin-6-yl)(1-(2,2,2-trifluoroethyl)piperidin-4-yl)methanone]
5.7 nM | Cn1cc(-c2cc3c(cc2F)Nc2ncccc2CN3C(=O)C2CCN(CC(F)(F)F)CC2)cn1 [Example 52, (9-Fluoro-8-(1-methyl-1H-pyrazol-4-yl)-5,11-dihydro-6H-benzo[b]pyrido[2,3-e][1,4]diazepin-6-yl)(1-(2,2,2-trifluoroethyl)piperidin-4-yl)methanone]
5.6 nM | O=C(C1CCN(CC(F)(F)F)CC1)N1Cc2cc(F)cnc2Nc2ccc([C@H]3COCCO3)cc21 [Example 54, (S)-(8-(1,4-Dioxan-2-yl)-3-fluoro-5,11-dihydro-6H-benzo[b]pyrido[2,3-e][1,4]diazepin-6-yl)(1-(2,2,2-trifluoroethyl)piperidin-4-yl)methanone]
3.6 nM | O=C(C1CCN(CC(F)(F)F)CC1)N1Cc2cc(F)cnc2Nc2cc(F)c(-c3ccn[nH]3)cc21 [Example 51, (3,9-difluoro-8-(1H-pyrazol-5-yl)-5,11-dihydro-6H-benzo[b]pyrido[2,3-e][1,4]diazepin-6-yl)(1-(2,2,2-trifluoroethyl)piperidin-4-yl)methanone]
3.5 nM | Cn1nccc1-c1cc2c(cc1F)Nc1ncc(F)cc1CN2C(=O)C1CCN(CC(F)(F)F)CC1 [Example 50, (3,9-Difluoro-8-(1-methyl-1H-pyrazol-5-yl)-5,11-dihydro-6H-benzo[b]pyrido[2,3-e][1,4]diazepin-6-yl)(1-(2,2,2-trifluoroethyl)piperidin-4-yl)methanone]

— patent publication US10399972B2, “Tricyclic compounds as inhibitors of mutant IDH enzymes” (Merck Sharp & Dohme Corp., priority 2015, dated 2019)
